Results as given in ChEMBL document CHEMBL4371063, “Identification of 2-(2'-fluoro-[1,1'-biphenyl]-2-yl)acetamide as a Sodium Valproate-like broad spectrum anti-epileptic drug candidate” (Bioorg Med Chem Lett, 2019).
The source made the active and inactive calls.

What was measured:
Mus musculus [1] = assay: Anticonvulsant activity in maximal electroshock induced seizure mouse model assessed as reduction in convulsions at 100 mg/kg, po; type: functional, organism-based
Mus musculus [2] = assay: Anticonvulsant activity in maximal electroshock induced seizure mouse model assessed as reduction in convulsions at 25 mg/kg, po; type: functional, organism-based
Mus musculus [3] = assay: Anticonvulsant activity in subcutaneous pentylenetetrazole-induced seizure mouse model assessed as reduction in convulsions at 100 mg/kg, po; type: functional, organism-based
Mus musculus [4] = assay: Anticonvulsant activity in subcutaneous pentylenetetrazole-induced seizure mouse model assessed as reduction in convulsions at 25 mg/kg, po; type: functional, organism-based
Mus musculus [5] = assay: Anticonvulsant activity in maximal electroshock induced seizure mouse model assessed as reduction in convulsions at 50 mg/kg, po; type: functional, organism-based
Mus musculus [6] = assay: Anticonvulsant activity in subcutaneous pentylenetetrazole-induced seizure mouse model assessed as reduction in convulsions at 50 mg/kg, po; type: functional, organism-based
Rattus norvegicus [7] = assay: Anticonvulsant activity in amygdala kindling rat model assessed as change in after discharge threshold at 300 mg/kg, po relative to control; type: functional
Rattus norvegicus [8] = assay: Anticonvulsant activity in amygdala kindling rat model assessed as change in after discharge threshold at 600 mg/kg, po relative to control; type: functional
Rattus norvegicus [9] = assay: Anticonvulsant activity in amygdala kindling rat model assessed as change in after discharge duration at 300 mg/kg, po (reference value: -5.5%); type: functional
Rattus norvegicus [10] = assay: Anticonvulsant activity in amygdala kindling rat model assessed as change in after discharge duration at 600 mg/kg, po (reference value: -5.5%); type: functional
Mus musculus [11] = assay: Anticonvulsant activity in po dosed maximal electroshock induced seizure mouse model assessed as reduction in convulsions; type: functional
Mus musculus [12] = assay: Anticonvulsant activity in po dosed subcutaneous pentylenetetrazole-induced seizure mouse model assessed as reduction in convulsions; type: functional
Mus musculus [13] = assay: Anticonvulsant activity in po dosed 6-Hz induced seizure mouse model; type: functional
[14] = Neurotoxicity in po dosed mouse by rotarod test; type: toxicity, organism-based; details: in vivo
[15] = Stability in rat hepatic microsomes assessed as parent compound remaining after 30 mins in presence of NADPH; type: ADME, Microsome; details: liver microsomes, read-out: Stability
[16] = Stability in human hepatic microsomes assessed as parent compound remaining after 30 mins in presence of NADPH; type: ADME, Microsome; details: liver microsomes, read-out: Stability
Rattus norvegicus [17] = assay: Anticonvulsant activity in amygdala kindling rat model assessed as change in after discharge threshold at 50 mg/kg, po relative to control; type: functional
Rattus norvegicus [18] = assay: Anticonvulsant activity in amygdala kindling rat model assessed as change in after discharge threshold at 100 mg/kg, po relative to control; type: functional
Rattus norvegicus [19] = assay: Anticonvulsant activity in amygdala kindling rat model assessed as change in after discharge duration at 50 mg/kg, po (reference value: -5.5%); type: functional
Rattus norvegicus [20] = assay: Anticonvulsant activity in amygdala kindling rat model assessed as change in after discharge duration at 100 mg/kg, po (reference value: -5.5%); type: functional
[21] = Therapeutic index, ratio of TD50 for neurotoxicity in po dosed mouse to ED50 for po dosed maximal electroshock induced seizure mouse model; type: toxicity, organism-based; details: in vivo, read-out: Ratio TD50/ED50
[22] = Therapeutic index, ratio of TD50 for neurotoxicity in po dosed mouse to ED50 for po dosed 6-Hz induced seizure mouse model; type: toxicity, organism-based; details: in vivo, read-out: Ratio TD50/ED50
[23] = target: T1, GABA-A receptor; anion channel (Rattus norvegicus) (UniProt O09028+P15431+P18506+P18508+P19969+P20236+P23574+P23576+P28471+P28473+P30191+P62813+P63079+P63138+Q91ZM7+Q9ES14); assay: Displacement of [3H]flunitrazepam from GABAA receptor in Sprague-Dawley rat cerebral cortex at 30 uM after 60 mins by scintillation counting method
[24] = target: T1, GABA-A receptor; anion channel (Rattus norvegicus); assay: Displacement of […] from GABAA receptor in Sprague-Dawley rat cerebral cortex at 30 uM by scintillation counting method
[25] = target: T2, GABA-A receptor; anion channel (Homo sapiens) (UniProt P14867+P47870+P18507+P28472+P48169+Q99928+Q9UN88+P34903+O00591+O14764+Q8N1C3+P18505+P78334+P47869+P31644+Q16445); assay: Displacement of [3H]muscimol from GABAA receptor (unknown origin) at 30 uM; type: protein-complex assay
[26] = target: T2, GABA-A receptor; anion channel (Homo sapiens); assay: Displacement of [3H]Ro15-1788 from GABAA receptor (unknown origin) at 30 uM; type: protein-complex assay
[27] = target: T2, GABA-A receptor; anion channel (Homo sapiens); assay: Displacement of [3H]TBOB from GABAA receptor (unknown origin) at 30 uM; type: protein-complex assay

SMILES | Activity (Mus musculus [1]) | Activity (Mus musculus [3]) | Activity (Mus musculus [5]) | further results
NC(=O)Cc1cc(F)ccc1-c1ccccc1F | Active | Active |  | Activity (Mus musculus [2]): inactive; Activity (Mus musculus [4]): inactive
NC(=O)Cc1ccccc1-c1ccccc1Cl | Active | Active | Active | Activity (Mus musculus [6]): Active; Activity (Mus musculus [4]): inactive
NC(=O)Cc1cnccc1-c1ccccc1F | inactive | inactive |  | 
NC(=O)Cc1cccnc1-c1ccccc1F | inactive |  |  | 
CCCC(CCC)C(=O)[O-].[Na+] [VALPROATE SODIUM] |  |  |  | Activity (Rattus norvegicus [7]): -5.4%; Activity (Rattus norvegicus [8]): 81.3%; Activity (Rattus norvegicus [9]): 11.1%; Activity (Rattus norvegicus [10]): -22.5%; ED50 (Mus musculus [11]): 309 mg/kg; ED50 (Mus musculus [12]): 336 mg/kg; ED50 (Mus musculus [13]): 343 mg/kg; TD50 [14]: 396 mg/kg
O=C(O)Cc1ccccc1-c1ccccc1F | inactive | inactive |  | 
CNS(=O)(=O)c1ccccc1-c1ccccc1F | Active | Active | Active | Activity (Mus musculus [2]): Active; Activity (Mus musculus [6]): Active
NC(=O)Cc1ccccc1-c1c(F)cccc1F | Active | Active | Active | Activity (Mus musculus [2]): Active; Activity (Mus musculus [4]): inactive
NC(=O)Cc1ncccc1-c1ccccc1F | Active |  |  | 
O=C1NC(=O)C(c2ccccc2-c2ccccc2F)N1 (centres undefined) | Active | inactive |  | 
NC(=O)Cc1ccccc1-c1ccccc1C(F)(F)F | Active |  | inactive | Activity (Mus musculus [6]): inactive
NC(=O)Cc1c(F)cccc1-c1ccccc1F | Active |  | Active | 
NC(=O)Cc1cccc(F)c1-c1ccccc1F | Active |  | Active | Activity (Mus musculus [4]): inactive
NC(=O)Cc1ccccc1-c1cc(F)ccc1F | Active | Active | Active | Activity (Mus musculus [2]): inactive; Activity (Mus musculus [4]): inactive
NC(=O)Cc1ccccc1-c1ccncc1F | inactive |  |  | 
NC(=O)c1ccccc1-c1ccccc1F | Active |  | Active | Activity (Mus musculus [2]): Active
NC(=O)Cc1ccc(F)cc1-c1ccccc1F | Active |  | Active | Activity (Mus musculus [2]): inactive
NC(=O)Cc1ccccc1-c1ccccc1F | Active |  | Active | remaining at 0.5 h [15]: > 95%; remaining at 0.5 h [16]: > 95%; Activity (Rattus norvegicus [17]): 75.9%; Activity (Rattus norvegicus [18]): 80.1%; Activity (Rattus norvegicus [19]): -22.9%; Activity (Rattus norvegicus [20]): -22.9%; ED50 (Mus musculus [11]): 27 mg/kg; ED50 (Mus musculus [12]): 27 mg/kg; ED50 (Mus musculus [13]): 56 mg/kg; TD50 [14]: 129 mg/kg; selectivity ratio [21]: 4.8; selectivity ratio [22]: 2.3; inhibition [23]: inactive; inhibition [24]: inactive; inhibition [25]: inactive; inhibition [26]: inactive; inhibition [27]: inactive
N#Cc1ccccc1-c1ccccc1CC(N)=O |  | inactive |  | 
NC(=O)Cc1ccccc1-c1ccc(F)cc1F | Active |  |  | 
O=C1CCCN1c1ccccc1-c1ccccc1F | Active | inactive |  | 
COc1ccccc1-c1ccccc1CC(N)=O |  |  | inactive | 
